From patent US6943162B2, “Piperazinyltriazines as estrogen receptor modulators” (SmithKline Beecham Corporation, priority 2001, dated 2005)
Where two headings read alike, the source gives them in different places.

What was measured:
ERβ = biological target: T1, ERβ (Homo sapiens, UniProt Q92731); assay: Estrogen receptor competition binding assay (SPA, [3H]Estradiol), ERβ
T1 construct: GST (N); made in house; host or cells: E. coli BL21(DE3)pLysS
Description: (§1) The ligand binding domain of both ERα and ERβ were subcloned into pGEX-2T vector which had been modified to contain KpnI and BamHI restriction sites in the multiple cloning region. GST-hERα and GST-hERβ proteins were made by transforming BL21(DE3)pLYS S competent cells with the appropriate expression plasmid. […] The cells were collected by centrifugation and resuspended in lysis buffer (50 mM Tris pH 7.9; 250 mM KCl; 1% Triton X-100; 10 mM DTT; 1 mM PMSF). The lysate was then placed on dry ice until completely frozen. […] The supernatant was retained and glycerol was added to a final concentration of 10%. The protein content of the supernatant was quantitated using the BioRad Protein Assay Reagent The protein was then stored at −80° C. until used in the binding assay.
(§2) Polylysine coated Yttrium Silicate SPA beads (Amersham #RPNQ 0010) are resuspended in assay buffer [10 mM potassium phosphate buffer pH 7.0 containing 2 mM EDTA, 50 mM NaCl, 1 mM DTT, 2 mM CHAPS, 10% glycerol] to a concentration of 1 g/60 ml. […] [2, 4, 6, 7, 16, 17-3H(N)]-Estradiol is added as a 30 ul aliquot to give a final assay concentration of 1 nM. […] The plates are shaken vigorously for two hours then counted on a Packard TopCount using the protocol for counting tritium yttrium silicate SPA beads. Data analysis was done by standard methods. % Bound was calculated for each concentration of each test compound using the equation % Bound=100*((Test−NS)/(T−NS)). % Bound was plotted vs concentration and curve fitting was accomplished using non-linear regression.

ERα = biological target: T2, ERα (Homo sapiens, UniProt P03372); assay: Estrogen receptor competition binding assay (SPA, [3H]Estradiol), ERα
T2 construct: GST (N); made in house; host or cells: E. coli BL21(DE3)pLysS
T2 sequence (P03372 311-547 limits assumed): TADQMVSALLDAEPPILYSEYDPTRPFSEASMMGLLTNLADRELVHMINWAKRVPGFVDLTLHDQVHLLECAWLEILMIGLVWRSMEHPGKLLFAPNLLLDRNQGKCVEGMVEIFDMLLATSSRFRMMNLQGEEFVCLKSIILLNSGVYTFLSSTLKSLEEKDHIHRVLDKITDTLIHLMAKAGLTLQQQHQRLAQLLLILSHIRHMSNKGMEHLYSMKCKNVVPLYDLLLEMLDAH
Description: as §1, §2

[1] = competition binding assay, GST-hERα ligand binding domain, 1 nM [3H]Estradiol, (n) = number of determinations, read-out: Avg. ER α pKi (n) (converted)

T1 sequence (Q92731 264-498 limits assumed): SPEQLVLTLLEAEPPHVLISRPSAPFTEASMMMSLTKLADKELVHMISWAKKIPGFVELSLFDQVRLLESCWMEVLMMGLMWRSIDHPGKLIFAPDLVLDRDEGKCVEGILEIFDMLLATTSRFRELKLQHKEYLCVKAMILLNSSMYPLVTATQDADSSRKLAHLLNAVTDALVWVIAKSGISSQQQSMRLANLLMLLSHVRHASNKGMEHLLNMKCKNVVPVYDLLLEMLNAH

SMILES | Ki (ERβ) [µM] | Ki (ERα; [1]) [µM] | Ki (ERα) [µM]
C[C@@H]1CN(c2nc(N(C)CCCc3ccc(Cl)cc3)nc(N(C)CCc3ccc(O)cc3)n2)C[C@H](C)N1 [Example 16, 4-(2-{[4-[[3-(4-chlorophenyl)propyl](methyl)amino]-6-(3,5-cis-dimethyl-1-piperazinyl)-1,3,5-triazin-2-yl](methyl)amino}ethyl)phenol] | 0.011 | 0.229 | 
CN(CCCc1ccc(Cl)cc1)c1nc(NCCc2ccc(O)cc2)nc(N2CCN(Cc3ccccn3)CC2)n1 [Example 5, 4-[2-({4-[[3-(4-chlorophenyl)propyl](methyl)amino]-6-[4-(2-pyridinylmethyl)-1-piperazinyl]-1,3,5-triazin-2-yl}amino)ethyl]phenol] | 0.038 |  | 
CN(CCCc1ccc(C(F)(F)F)cc1)c1nc(N(C)CCc2ccc(O)cc2)nc(N2CCNCC2)n1 [Example 22, 4-(2-{methyl[4-(methyl{3-[4-(trifluoromethyl)phenyl]propyl}amino)-6-(1-piperazinyl)-1,3,5-triazin-2-yl]amino}ethyl)phenol] | 0.0851 | 0.55 | 
C=CCN1CCN(c2nc(NCCc3ccc(O)cc3)nc(N(C)CCCc3ccc(Cl)cc3)n2)CC1 [Example 12, 4-[2-({4-(4-ally-1-piperazinyl)-6-[[3-(4-chlorophenyl)propy](methyl)amino]-1,3,5-triazin-2-yl}amino)ethyl]phenol] | 0.0229 |  | 
CN(CCCc1ccc(F)cc1)c1nc(NCCc2ccc(O)cc2)nc(N2CCNCC2)n1 [Example 18, 4-(2-{[4-[[3-(4-fluorophenyl)propyl](methyl)amino]-6-(1-piperazinyl)-1,3,5-triazin-2-yl]amino}ethyl)phenol] | 0.0158 | 0.372 | 
CN(CCCc1ccc(Cl)cc1)c1nc(NCCc2ccc(O)cc2)nc(N2CCN(CCO)CC2)n1 [Example 24, 4-[2-({4-[[3-(4-chlorophenyl)propyl](methyl)amino]-6-[4-(2-hydroxyethyl)-1-piperazinyl]-1,3,5-triazin-2-yl}amino)ethyl]phenol] | 0.0148 |  | 0.339
CN(CCCc1ccc(Cl)cc1)c1nc(NCCc2ccc(O)cc2)nc(N2CCN(/C(=C/C(=O)c3ccccc3)C(F)(F)F)CC2)n1 [Example 8, (2E)-3-[4-(4-[[3-(4-chlorophenyl)propyl](methyl)amino]-6-{[2-(4-hydroxyphenyl)ethyl]amino}-1,3,5-triazin-2-yl)-1-piperazinyl]-4,4,4-trifluoro-1-phenyl-2-buten-1-one] | 0.0832 | 1.58 | 
CN(CCCc1ccc(Cl)cc1)c1nc(NCCc2ccc(O)cc2)nc(N2CCN(C(=O)c3ccccn3)CC2)n1 [Example 4, 4-[2-({4-[[3-(4-chlorophenyl)propyl](methyl)amino]-6-[4-(2-pyridinylcarbonyl)-1-piperazinyl]-1,3,5-triazin-2-yl}amino)ethyl]phenol] | 0.155 | 4.37 | 
CN(CCCc1ccc(Cl)cc1)c1nc(N(C)CCc2ccc(O)cc2)nc(N2CCN(CCO)CC2)n1 [Example 17] | 0.0288 | 0.603 | 
CN1CCN(c2nc(N(C)CCCc3ccc(Cl)cc3)nc(N(C)CCc3ccc(O)cc3)n2)CC1 [Example 15, 4-(2-{[4-[[3-(4-chlorophenyl)propyl](methyl)amino]-6-(4-methyl-1-piperazinyl)-1,3,5-triazin-2-yl](methyl)amino}ethyl)phenol] | 0.0132 | 0.38 | 
COc1cccc(C(=O)N2CCN(c3nc(NCCc4ccc(O)cc4)nc(N(C)CCCc4ccc(Cl)cc4)n3)CC2)c1 [Example 3, 4-[2-({4-[[3-(4-chlorophenyl)propyl](methyl)amino]-6-[4-(3-methoxybenzoyl)-1-piperazinyl]-1,3,5-triazin-2-yl}amino)ethyl]phenol] | 0.0955 | 1.78 | 
CN(CCCc1ccc(F)cc1)c1nc(N(C)CCc2ccc(O)cc2)nc(N2CCNCC2)n1 [Example 19, 4-(2-{[4-[[3-(4-fluorophenyl)propyl](methyl)amino]-6-(1-piperazinyl)-1,3,5-triazin-2-yl]methylamino}ethyl)phenol] | 0.0245 | 0.55 | 
Cc1nc(CN2CCN(c3nc(NCCc4ccc(O)cc4)nc(N(C)CCCc4ccc(Cl)cc4)n3)CC2)cs1 [Example 7, 4-{2-[(4-[[3-(4-chlorophenyl)propyl](methyl)amino]-6-{4-[(2-methyl-1,3-thiazol-4-yl)methyl]-1-piperazinyl}-1,3,5-triazin-2-yl)amino]ethyl}phenol] | 0.0186 |  | 
CN(CCCc1ccc(Cl)cc1)c1nc(NCCc2ccc(O)cc2)nc(N2CCN(C/C=C/c3ccccc3)CC2)n1 [Example 13, 4-{2-[(4-[[3-(4-chlorophenyl)propyl](methyl)amino]-6-{4-[(2E)-3-phenyl-2-propenyl]-1-piperazinyl}-1,3,5-triazin-2-yl)amino]ethyl]phenol] | 0.01 | 0.141 | 
CN(CCCc1ccc(Cl)cc1)c1nc(NCCc2ccc(O)cc2)nc(N2CCN(Cc3cccnc3)CC2)n1 [Example 6, 4-[2-({4-[[3-(4-chlorophenyl)propyl](methyl)amino]-6-[4-(3-pyridinylmethyl)-1-piperazinyl]-1,3,5-triazin-2-yl}amino)ethyl]phenol] | 0.0316 |  | 
CN(CCCc1ccc(Cl)cc1)c1nc(N(C)CCc2ccc(O)cc2)nc(N2CCNCC2)n1 [Example 14, 4-{2-[[4-[[3-(4-chlorophenyl)propyl](methyl)amino]-6-(1-piperazinyl)-1,3,5-triazin-2-yl](methyl)amino]ethy}phenol] | 0.0263 | 0.562 | 
CN(CCCc1ccc(Cl)cc1)c1nc(NCCc2ccc(O)cc2)nc(N2CCNCC2)n1 [Example 1, 4-(2-{[4-[[3-(4-chlorophenyl)propyl](methyl)amino]-6-(1-piperazinyl)-1,3,5-triazin-2-yl]amino}ethyl)phenol] | 0.0105 | 0.339 | 
CN(CCCc1ccc(Cl)cc1Cl)c1nc(N(C)CCc2ccc(O)cc2)nc(N2CCNCC2)n1 [Example 23, 4-(2-{[4-[[3-(2,4-dichlorophenyl)propyl](methyl)amino]-6-(1-piperazinyl)-1,3,5-triazin-2-yl]methylamino}ethyl)phenol] | 0.0331 | 0.501 | 
CN(C)C(=O)CCN1CCN(c2nc(NCCc3ccc(O)cc3)nc(N(C)CCCc3ccc(Cl)cc3)n2)CC1 [Example 9, 3-[4-(4-[[3-(4-chlorophenyl)propyl](methyl)amino]-6-{[2-(4-hydroxyphenyl)ethyl]amino}-1,3,5-triazin-2-yl)-1-piperazinyl]-N,N-dimethylpropanamide] | 0.02 | 0.355 | 
CN1CCN(c2nc(N(C)CCCc3ccc(F)cc3)nc(N(C)CCc3ccc(O)cc3)n2)CC1 [Example 20, 4-(2-{[4-[[3-(4-fluorophenyl)propyl](methyl)amino]-6-(4-methyl-1-piperazinyl)-1,3,5-triazin-2-yl]methylamino}ethyl)phenol] | 0.0234 | 0.562 | 
CN1CCN(c2nc(NC3CCc4cc(O)ccc4C3)nc(SCCCc3ccccc3)n2)CC1 (stereo not shown) [Example 10, 6-({4-(4-methyl-1-piperazinyl)-6-[(3-phenylpropyl)sulfanyl]-1,3,5-triazin-2-yl}amino)-5,6,7,8-tetrahydro-2-naphthalenol] | 0.0631 | 0.398 | 
CN(CCCc1ccc(F)c(F)c1)c1nc(N(C)CCc2ccc(O)cc2)nc(N2CCNCC2)n1 [Example 21, 4-(2-{[4-[[3-(3,4-difluorophenyl)propyl](methyl)amino]-6-(1-piperazinyl)-1,3,5-triazin-2-yl]methylamino}ethyl)phenol] | 0.0234 | 0.214 | 
